Patent US9120779B2, “Inhibitors of HCV NS5A” (PRESIDIO PHARMACEUTICALS, INC., priority 2008, dated 2015)

These compounds were tested on HCV genotype 1b replicon in Huh 7 cells (assay: HCV replicon assay (luciferase readout, 1b_Huh-Luc/Neo-ET cell line)). Settings: Hepatitis C virus, Huh-7, 72 h, read-out: Inhibition of HCV genotype 1b, Table 1, 72 h incubation.
Type: cell-based
Experimental: Biological activity of the compounds of the invention was determined using an HCV replicon assay. The 1b_Huh-Luc/Neo-ET cell line persistently expressing a bicistronic genotype 1b replicon in Huh 7 cells was obtained from R^eBLikon GMBH. This cell line was used to test compound inhibition using luciferase enzyme activity readout as a measurement of compound inhibition of replicon levels.
On Day 1 (the day after plating), each compound is added in triplicate to the cells. Plates incubated for 72 h prior to running the luciferase assay. Enzyme activity was measured using a Bright-Glo Kit (cat. number E2620) manufactured by Promega Corporation. The following equation was used to generate a percent control value for each compound. % Control=(Average Compound Value/Average Control)*100
The EC50 value was determined using GraphPad Prism and the following equation: Y=Bottom+(Top−Bottom)/(1+10^((Log IC50−X)*HillSlope))
EC50 values of compounds are repeated several times in the replicon assay.
Example compounds of the disclosed invention are illustrated in Tables 1-9 attached as appendices. The tables show inhibitory activity of many of the example compounds with respect to HCV 1b. […] The tables further provide mass spectrometry results for the synthesized example compounds.

Row | SMILES | EC50 [nM]
1 | CC(C)[C@H](NC(=O)N1CCOCC1)C(=O)N1CCC[C@H]1c1ncc(-c2ccc([C@H]3CC[C@H](c4cnc([C@@H]5CCCN5C(=O)[C@@H](NC(=O)N5CCOCC5)C(C)C)[nH]4)CC3)cc2)[nH]1 [compound 385] | 10 to 999
2 | CC(C)[C@H](NC(=O)N1CCOCC1)C(=O)N1CCC[C@H]1c1ncc(-c2ccc([C@H]3CC[C@@H](c4cnc([C@@H]5CCCN5C(=O)[C@@H](NC(=O)N5CCOCC5)C(C)C)[nH]4)CC3)cc2)[nH]1 [compound 386] | 10 to 999
3 | COC(=O)N[C@@H](C)C(=O)N1CCC[C@H]1c1ncc(-c2ccc([C@H]3CC[C@H](c4cnc([C@@H]5CCCN5C(=O)[C@H](C)NC(=O)OC)[nH]4)CC3)cc2)[nH]1 [compound 387] | < 1
4 | COC(=O)N[C@H](C(=O)N1CCC[C@H]1c1ncc(-c2ccc([C@H]3CC[C@H](c4cnc([C@@H]5CCCN5C(=O)[C@@H](NC(=O)OC)[C@@H](C)OC)[nH]4)CC3)cc2)[nH]1)[C@@H](C)OC [compound 388] | < 1

Same assay, conditions: Hepatitis C virus, Huh-7, 72 h, read-out: Inhibition of HCV genotype 1b, Table 2, 72 h incubation

Row | SMILES | EC50 [nM]
5 | CC(C)(C)OC(=O)N[C@@H](C(=O)N1CCC[C@H]1c1ncc(-c2ccc(-c3ccc4nc([C@@H]5CCCN5C(=O)[C@H](NC(=O)OC(C)(C)C)c5ccccc5)[nH]c4c3)cc2)[nH]1)c1ccccc1 [compound 400] | < 1
6 | COC(=O)N[C@@H](C(=O)N1CCC[C@H]1c1ncc(-c2ccc(-c3ccc4nc([C@@H]5CCCN5C(=O)[C@H](NC(=O)OC)c5ccccc5)[nH]c4c3)cc2)[nH]1)c1ccccc1 [compound 401] | < 1
7 | COC(=O)N[C@H](C(=O)N1CCC[C@H]1c1ncc(-c2ccc(-c3ccc4nc([C@@H]5CCCN5C(=O)[C@@H](NC(=O)OC)[C@@H](C)OC)[nH]c4c3)cc2)[nH]1)[C@@H](C)OC [compound 402] | < 1
8 | COC(=O)N[C@H](C(=O)N1CCC[C@H]1c1ncc(-c2ccc(-c3ccc4nc([C@@H]5CCCN5C(=O)[C@@H](NC(=O)OC)C(C)C)[nH]c4c3)cc2)[nH]1)C(C)C [compound 403] | < 1
9 | COC(=O)N[C@@H](C(=O)N1CCC[C@H]1c1ncc(-c2ccc(-c3ccc4nc([C@@H]5CCCN5C(=O)[C@H](NC(=O)OC)C(C)C)[nH]c4c3)cc2)[nH]1)C(C)C [compound 404] | 1 to 9.9

Same assay, conditions: Hepatitis C virus, Huh-7, 72 h, read-out: Inhibition of HCV genotype 1b, Table 3, 72 h incubation

Row | SMILES | EC50 [nM]
10 | CC(C)(C)OC(=O)N[C@@H](C(=O)N1CCC[C@H]1c1ncc(-c2ccc(N3CCC(c4cnc([C@@H]5CCCN5C(=O)[C@H](NC(=O)OC(C)(C)C)c5ccccc5)[nH]4)CC3)c(F)c2)[nH]1)c1ccccc1 [compound 450] | < 1
11 | O=C(N[C@@H](C(=O)N1CCC[C@H]1c1ncc(-c2ccc(N3CCC(c4cnc([C@@H]5CCCN5C(=O)[C@H](NC(=O)C5CC5)c5ccccc5)[nH]4)CC3)c(F)c2)[nH]1)c1ccccc1)C1CC1 [compound 451] | < 1
12 | COC(=O)N[C@@H](C(=O)N1CCC[C@H]1c1ncc(-c2ccc(N3CCC(c4cnc([C@@H]5CCCN5C(=O)[C@H](NC(=O)OC)c5ccccc5)[nH]4)CC3)c(F)c2)[nH]1)c1ccccc1 [compound 452] | < 1
13 | CC(C)(C)OC(=O)N[C@@H](C(=O)N1CCC[C@H]1C(=O)NC1CCN(c2ccc(-c3cnc([C@@H]4CCCN4C(=O)[C@H](NC(=O)OC(C)(C)C)c4ccccc4)[nH]3)cc2F)CC1)c1ccccc1 [compound 453] | < 1
14 | COC(=O)N[C@@H](C(=O)N1CCC[C@H]1C(=O)NC1CCN(c2ccc(-c3cnc([C@@H]4CCCN4C(=O)[C@H](NC(=O)OC)c4ccccc4)[nH]3)cc2F)CC1)c1ccccc1 [compound 454] | < 1
15 | O=C(NC1CCN(c2ccc(-c3cnc([C@@H]4CCCN4C(=O)[C@H](NC(=O)N4CCOCC4)c4ccccc4)[nH]3)cc2F)CC1)[C@@H]1CCCN1C(=O)[C@H](NC(=O)N1CCOCC1)c1ccccc1 [compound 455] | 1 to 9.9
16 | O=C(N[C@@H](C(=O)N1CCC[C@H]1C(=O)NC1CCN(c2ccc(-c3cnc([C@@H]4CCCN4C(=O)[C@H](NC(=O)C4CC4)c4ccccc4)[nH]3)cc2F)CC1)c1ccccc1)C1CC1 [compound 456] | < 1
17 | CN(C)C(=O)N[C@@H](C(=O)N1CCC[C@H]1C(=O)NC1CCN(c2ccc(-c3cnc([C@@H]4CCCN4C(=O)[C@H](NC(=O)N(C)C)c4ccccc4)[nH]3)cc2F)CC1)c1ccccc1 [compound 457] | < 1
18 | COC(=O)N[C@@H](C(=O)N1CCC[C@H]1c1ncc(-c2cc(F)c(N3CCC(c4cnc([C@@H]5CCCN5C(=O)[C@@H](c5ccccc5)N(C)C)[nH]4)CC3)c(F)c2)[nH]1)c1ccccc1 [compound 458] | < 1
19 | COC(=O)N[C@@H](C(=O)N1CCC[C@H]1c1ncc(-c2cc(F)c(N3CCC(c4cnc([C@@H]5CCCN5C(=O)[C@H](NC(=O)OC)c5ccccc5)[nH]4)CC3)c(F)c2)[nH]1)c1ccccc1 [compound 459] | < 1
20 | COC(=O)N[C@@H](C(=O)N1CCC[C@H]1c1ncc(-c2cc(F)c(N3CCC(c4cnc([C@@H]5CCCN5C(=O)[C@H](NC(=O)OC(C)(C)C)c5ccccc5)[nH]4)CC3)c(F)c2)[nH]1)c1ccccc1 [compound 460] | < 1
21 | COC(=O)N[C@@H](C(=O)N1CCC[C@H]1c1ncc(-c2cc(F)c(N3CCC(c4cnc([C@@H]5CCCN5C(=O)[C@H](NC(=O)C5CC5)c5ccccc5)[nH]4)CC3)c(F)c2)[nH]1)c1ccccc1 [compound 461] | < 1
22 | COC(=O)N[C@@H](C(=O)N1CCC[C@H]1c1ncc(-c2cc(F)c(N3CCC(c4cnc([C@@H]5CCCN5C(=O)[C@H](NC(=O)N5CCN(C)CC5)c5ccccc5)[nH]4)CC3)c(F)c2)[nH]1)c1ccccc1 [compound 462] | < 1
23 | COC(=O)N[C@H](C(=O)N1CCC[C@H]1c1ncc(C2CCN(c3c(F)cc(-c4cnc([C@@H]5CCCN5C(=O)[C@H](NC(=O)OC)c5ccccc5)[nH]4)cc3F)CC2)[nH]1)[C@@H](C)OC [compound 466] | < 1
24 | CCN(CC)[C@@H](C(=O)N1CCC[C@H]1c1ncc(C2CCN(c3c(F)cc(-c4cnc([C@@H]5CCCN5C(=O)[C@H](NC(=O)OC)c5ccccc5)[nH]4)cc3F)CC2)[nH]1)c1ccccc1 [compound 467] | < 1
25 | COC(=O)N[C@@H](C(=O)N1CCC[C@H]1c1ncc(-c2cc(F)c(N3CCC(c4cnc([C@@H]5CCCN5C(=O)[C@@H](c5ccccc5)N5CCOCC5)[nH]4)CC3)c(F)c2)[nH]1)c1ccccc1 [compound 468] | < 1
26 | COC(=O)N[C@@H](C(=O)N1CCC[C@H]1c1ncc(-c2cc(F)c(N3CCC(c4cnc([C@@H]5CCCN5C(=O)[C@@H](c5ccccc5)N5CCCCC5)[nH]4)CC3)c(F)c2)[nH]1)c1ccccc1 [compound 469] | < 1
27 | COC(=O)N[C@@H](C(=O)N1CCC[C@H]1c1ncc(-c2cc(F)c(N3CCC(c4cnc([C@@H]5CCCN5C(=O)[C@H](NC(=O)N5CCOCC5)c5ccccc5)[nH]4)CC3)c(F)c2)[nH]1)c1ccccc1 [compound 471] | 1 to 9.9
28 | COC(=O)N[C@@H](C(=O)N1CCC[C@H]1c1ncc(-c2cc(F)c(N3CCC(c4cnc([C@@H]5CCCN5C(=O)[C@H](NC(=O)[C@@H]5CCCN5C)c5ccccc5)[nH]4)CC3)c(F)c2)[nH]1)c1ccccc1 [compound 472] | < 1
29 | COC(=O)N[C@@H](C(=O)N1CCC[C@H]1c1ncc(-c2cc(F)c(N3CCC(c4cnc([C@@H]5CCCN5C(=O)[C@H](NS(C)(=O)=O)c5ccccc5)[nH]4)CC3)c(F)c2)[nH]1)c1ccccc1 [compound 474] | < 1
30 | COC(=O)N[C@@H](C(=O)N1CCC[C@H]1c1ncc(-c2cc(F)c(N3CCC(c4cnc([C@@H]5CCCN5C(=O)[C@@H](c5ccccc5)N5CCCC5)[nH]4)CC3)c(F)c2)[nH]1)c1ccccc1 [compound 475] | < 1
31 | CCOC(=O)N[C@@H](C(=O)N1CCC[C@H]1c1ncc(C2CCN(c3c(F)cc(-c4cnc([C@@H]5CCCN5C(=O)[C@H](NC(=O)OC)c5ccccc5)[nH]4)cc3F)CC2)[nH]1)c1ccccc1 [compound 476] | < 1
32 | COC(=O)N[C@@H](C(=O)N1CCC[C@H]1c1ncc(-c2cc(F)c(N3CCC(c4cnc([C@@H]5CCCN5C(=O)[C@H](NS(=O)(=O)C5CC5)c5ccccc5)[nH]4)CC3)c(F)c2)[nH]1)c1ccccc1 [compound 477] | < 1
33 | COC(=O)N[C@@H](C(=O)N1CCC[C@H]1c1ncc(C2CCN(c3c(F)cc(-c4cnc([C@@H]5CCCN5C(=O)[C@H](NC(=O)OC(C)(C)C)c5ccccc5)[nH]4)cc3F)CC2)[nH]1)c1ccccc1 [compound 479] | < 1
34 | COC(=O)N[C@@H](C(=O)N1CCC[C@H]1c1ncc(C2CCN(c3c(F)cc(-c4cnc([C@@H]5CCCN5C(=O)[C@H](NC(=O)C5CC5)c5ccccc5)[nH]4)cc3F)CC2)[nH]1)c1ccccc1 [compound 480] | < 1
35 | COC(=O)N[C@@H](C(=O)N1CCC[C@H]1c1ncc(C2CCN(c3c(F)cc(-c4cnc([C@@H]5CCCN5C(=O)[C@H](NC(=O)N5CCOCC5)c5ccccc5)[nH]4)cc3F)CC2)[nH]1)c1ccccc1 [compound 481] | < 1
36 | CC(C)(C)OC(=O)N[C@@H](C(=O)N1CCC[C@H]1c1ncc(-c2cc(F)c(N3CCC(c4cnc([C@@H]5CCCN5C(=O)[C@H](NC(=O)OC(C)(C)C)c5ccccc5)[nH]4)CC3)c(F)c2)[nH]1)c1ccccc1 [compound 482] | < 1

Same assay, conditions: read-out: Inhibition of HCV genotype 1b, Table 3, 72 h incubation

Row | SMILES | EC50 [nM]
37 | COC(=O)N[C@@H](C(=O)N1CCC[C@H]1c1ncc(-c2cc(F)c(N3CCC(c4cnc([C@@H]5CCCN5C(=O)[C@H](NC(=O)N5CCOCC5)c5ccccc5)[nH]4)CC3)c(F)c2)[nH]1)c1ccccc1 [compound 473] | < 1
